These results are taken from article PMC6030159 (Scientific Reports, 2018).

Each structure is given as a SMILES string. pIC50: −log10 of the molar value. “Also recorded” adds a separate entry of the source. Bounds are passed on as bounds.

The test system of experiment [1] is MAX:MAX. The experiment can be described thus: MST MAX:MAX. The format is binding. Conditions: labeled MAX pre-mixed with 1 µM unlabeled MAX.
The target in experiment [2] is T1, MYCbHLHZip:MAXbHLHZip (Homo sapiens, UniProt P01106).
T1 construct: 6xHis (N); made in house; host or cells: E. coli BL21 (DE3), pET28a
The experiment can be described thus: SPR MYC:MAX heterodimer formation assay. The format is binding. As to conditions: 100 nM MYCbHLHZip over immobilized MAXbHLHZip. As for the experimental part: The SPR method is a highly sensitive assay to determine the affinity between protein and ligand and to measure the kinetics of the interaction. In the SPR MYC:MAX interaction assay, MAXbHLHZip was covalently attached onto a sensor chip and MYCbHLHZip pre-mixed with compound was injected over the surface and thereafter allowed to dissociate.
The SPR experiments were performed at 25 °C using a Biacore T200 (GE Healthcare) instrument kindly provided by SciLifeLab Solna. An amino coupling procedure was used to immobilize protein on a CM5 sensor chip (GE Healthcare). Sensorgrams were generated by subtraction of the reference (blank immobilized) surface. All details will be described in Castell et al. (manuscript in preparation). In general, for the MYC:MAX interaction assay, 200–500 RU of MAXbHLHZip was immobilized and 100 nM MYCbHLHZip pre-incubated with compound in PBS supplemented with 0.05% Tween-20 and 1% DMSO was injected with a flow rate of 30 µl/min and allowed to dissociate. MAX was regenerated by injection of PBS buffer supplemented with Urea.

Experiment [3] has as its target MAX bHLHZip (Homo sapiens, UniProt P61244). The experiment can be described thus: MST direct binding to MAX. Conditions: 3 μM MYCMI-6, MAX titrated. As for the experimental part:
To determine whether MYCMI-6 binds directly to MYC (or MAX), MST and SPR were applied. The bHLHZip domains of MYC or MAX, respectively (Suppl. Fig. S1C), were titrated and mixed with 3 μM of MYCMI-6.
MST was carried out on a Monolith NT.115 with blue/green filters, kindly provided by Luca Jovine, Karolinska Institutet Huddinge, according to manufacturer’s protocol (NanoTemper). MYCbHLHZip, MAXbHLHZip, BSA and BCL-XL recombinant proteins and compounds were diluted and titrated in PBS supplemented with 0.05% Triton-X-114 or 0.05% Tween-20. Titration of molecules was carried out in 16 PCR tubes into which a fixed concentration of fluorescent molecule was added. The mixture was applied to capillaries (standard treated, NanoTemper), and scanned in the Monolith NT.115 to measure initial fluorescence of molecule. MST was induced and fluorescence was measured during 40 seconds. Double measurements were carried out (MST power of 20% and 40%, or 40% and 60%) for each sample. Delta fluorescence or relative fluorescence of fluorescent molecule normalized to control vehicle was plotted against titrated molecule concentration. The protein labeling kit GREEN-NHS (NanoTemper) was used to label primary amines of proteins according to manufacture’s protocol.

For experiment [4], the system named is T2, BSA.
T2 construct: purchased NanoTemper (included in the MST kit)
The experiment can be described thus: SPR binding to BSA. The arrangement: species or system bovine. As for the experimental part:
The MYC SPR assay was carried out as described above with MYCbHLHZip immobilized to a level of 800–1000 RU. For kinetic binding experiments, a Langmuir 1:1 binding event was applied using the Biacore T200 Evaluation Software 2.0 (GE Healthcare) to determine association (ka) and dissociation (kd) constants of the compound and to calculate affinity (KD) by the formula; KD = kd/ka. Binding responses from equilibrium binding experiments were plotted against compound concentration and KD values were determined at 50% of the theoretical Rmax with the formula Rmax = (MW analyte/MW ligand) × immobilized ligand level on the chip (RU) × stoichiometry (1:1). Same coupling method described above was used to immobilize the control proteins. MAX was immobilized to approximately 2000 RU, MAD to 600 RU, BSA to 1000 RU, p53 to 3000 RU and BCL-XL, to 500 RU.

The test system of experiment [5] is T3, MYCN:MAX interaction.
T3 construct: endogenous in cells; host or cells: SK-N-BE(2)
The experiment can be described thus: isPLA endogenous MYCN:MAX in SK-N-BE(2) cells. The format is cell-based. As to conditions: 2.5 μM, 16 hours. The method, then:
The isPLA assay has been described. Antibodies used are listed in Supplementary Information. Briefly, cells were grown on collagen-coated chamber slides (Falcon), and treated with 1–10 μM of compounds, respectively, for 16 hours, then washed twice with PBS and fixed in ice cold methanol for 5–15 min at room temperature. Slides were washed in PBS with 0.05% Tween 20 and incubated in blocking buffer after which isPLA was performed using the Duolink® in situ PLA kit (Sigma-Aldrich) according to the manufacturer’s protocol. DNA was stained with DAPI. Incubation with primary antibodies were performed at +4 °C overnight. Images were taken using an Axiovert 200M inverted microscope (Zeiss) and fluorescent dots were quantified using semi-automated analysis in ImageJ (http://imagej.net) and averaged to number of dots per cell.

The subject of experiment [6] is MYC/MYCN target genes. The experiment can be described thus: RT-qPCR of MYC/MYCN target genes in Kelly cells. As to conditions: 2.5 μM, 24 hours. The format is cell-based. As for the experimental part:
These assays were performed essentially as described in[67],[68]. For further information on immunohistochemistry, and on primers and antibodies, see Supplementary Information.

The test system of experiment [7] is HO15.19 (MYC knockout) Rat1 fibroblasts. The experiment can be described thus: WST-1 growth assay, HO15.19 (MYC knockout) Rat1 fibroblasts. The format is cell-based, rat. The method, then:
Cell proliferation assays. Cell growth and viability was estimated in triplicates with WST-1
(Roche) or Resazurin sodium salt (Sigma-Aldrich) assays in medium at 37°C and 5% CO 2 for
2 hours after which absorbance or fluorescence, respectively, was measured with an Omega
Fluostar (BMG Labtech) in a 96 well plate format. […]
(§1) 0.7% agarose. […]

Experiment [8] relates to MYCN-amplified SK-N-DZ neuroblastoma cells. The experiment can be described thus: Viable/dead cell counting, SK-N-DZ. The format is cell-based, human. As to conditions: 12.5 μM, 24 hours. The method, then: Cell proliferation assays. […]
Fluostar (BMG Labtech) in a 96 well plate format. Cell counting was done in 96 well plates with CellTracker Green (ThermoFisher) for 30 min in the incubator, after which DAPI was added for 5 min. Images were taken in the green (FITC) and blue (DAPI) channels using a fluorescence microscope (ImageXpress Micro, Molecular Devices). […]
as §1

In experiment [9] the test system is hTERT. Also on record: method as in PMID 23173022. Conditions: found artificial, unspecific DNA binding; cited from earlier work.
The subject of experiment [10] is HDM2. The arrangement: method as in PMID 19202599. As to conditions: cited from earlier work.
In experiment [11] the test system is p53. The arrangement: method as in PMID 19202599. As to conditions: cited from earlier work.
Experiment [12] deals with lung tumor. The arrangement: method as in PMID 23824742. As to conditions: cited from earlier work.

Sequence of MAX bHLHZip (P61244 23-102 limits assumed): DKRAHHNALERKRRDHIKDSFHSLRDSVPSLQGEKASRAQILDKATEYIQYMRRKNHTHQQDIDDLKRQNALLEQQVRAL
T1 sequence (P01106 367-447 limits assumed): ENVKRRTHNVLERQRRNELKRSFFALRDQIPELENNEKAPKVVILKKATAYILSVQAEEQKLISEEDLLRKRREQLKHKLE

Consider `CCOc1ccc2nc3cc(/N=N/c4ccc(N)nc4N)ccc3c(N)c2c1` [MYCMI-6], for which, in experiment [1], the “effect on MAX:MAX (MST)” value was “minor effects; also recorded: did not inhibit MAX:MAX homodimerization”. The pIC50 in experiment [2] is 5.42. In addition, the “binding to MAX bHLHZip (MST)” value in [3] is listed as “no obvious changes; also recorded: did not bind to MAX”. Further, the “binding to BSA (SPR)” value in experiment [4] is listed as “negligible”. For the same compound, the “MYCN:MAX interaction (isPLA)” value in [5] is on record as “significantly inhibited”. The “expression of MYC/MYCN target genes” value in [6] was “significantly inhibited”. For the same compound, the “growth of MYC null (HO15.19) cells” value in [7] is “did not significantly affect growth”. The “cell death and cell number, SK-N-DZ” value in experiment [8] is “dramatically increased cell death and reduced cell number; also recorded: killed almost 100%”. For the same compound, in experiment [9], the “IC50 for hTERT relative to MYC:MAX in vitro” value is given as “approximately 10 fold”. Also, in experiment [10], the “IC50 for HDM2 relative to MYC:MAX in vitro” value is on record as “approximately 10 fold”. Also, the “concentrations causing increased expression of p53 in cells” value in experiment [11] is not below 5 µM. Also, the “lung tumor growth in mouse xenograft model” value in [12] is “inhibit lung tumor growth”.
